The values that follow come from patent EP0341661A2, “Peptide-drug compositions containing alpha-aminoboronic acid derivatives” (THE DU PONT MERCK PHARMACEUTICAL COMPANY, priority 1988, dated 1989).

What all share (assay type): in vivo, Sprague-Dawley rats
For experiment [1], the system named is aminopeptidases. The experiment can be described thus: In situ nasal perfusion: disappearance of 35 µM LH-RH (fragment 3-10) in the nasal perfusate. The following applies: 0.465 µM Boroleucine. The procedure: (§1) The method involved the use of Sprague-Dawley rats weighing approximately 300 grams. Each rat was anesthetized with sodium pentobarbitol (50 mg/kg). An incision was made in the neck and the trachea was canulated with PE 240 tubing. For the in situ studies, a second tube, which served to introduce the perfusing solution, was inserted through the esophagus to the posterior part of the nasal cavity. The nasopalatine was closed with an adhesive to prevent drainage of the perfusing solution from the nasal to the oral cavity. For the in vivo in situ studies, the esophagus was canulated using PE 240 tubing closed at one end. The closed end was pushed to the posterior end of the nasal passage and then tied in place. The nasopalatine was closed with an adhesive to prevent drainage of the perfusing solution from the nasal to the oral cavity. The rats were dosed in one nostril with 50 µl of peptide solution in two forms; the control solution had no inhibitor added, the test solution had inhibitor added at concentrations specified in the examples shown below. The dosing solution was 0.1 M phosphate buffer (pH 7.4). At certain time intervals (one rat/time interval), the drug was washed from the nose via the other nostril with 10 ml of 0.1 M phosphate buffer (pH 3.8) using a peristaltic pump. The nasal washing was then placed in a 10 ml volumetric flask and adjusted to 10 ml with the same buffer and analyzed for the peptide by HPLC.
(§2) The analysis of leucine enkephalin and its major metabolite involved taking aliquots of samples, diluting them with 200 µl of 0.1 M citric acid (pH 2.3) to quench hydrolysis and subjecting the samples to analysis (for in vivo in situ studies, the washings were injected as they were obtained). High Pressure Liquid Chromatography (HPLC) was run on a 4.6 x 250 mm C₈ column. The mobile phase consisted of 0.1 M NaH₂PO₄-H₃PO₄-acetonitrile (916 : 5 : 275) and was delivered at a flow rate of 1.7 ml/min. Detection was by UV at 210 nm. Retention times for leucine enkephalin and its major degradation product, Des-Tyr-leucine enkephalin were 7.3 and 4.8 min., respectively. Data were calculated as % of leucine enkephalin remaining in the nasal perfusate as a function of time, counting the concentration at zero time as 100%.
(§3) A 10 ml portion of the peptide solution was placed in a water-jacketed container, maintained at 37°C and circulated through the nasal cavity of rats using a peristaltic pump. The perfusing solution was passed through the nasal cavity, out the nostrils, through a funnel, and returned to the water-jacketed container. The perfusate was analyzed by the ANALYTICAL METHOD described above.
In this example, a 0.1 M phosphate buffer solution (pH 7.4) containing 35 µM LH-RH (fragment 3-10) in the absence of inhibitor and in the presence of the inhibitor, boroleucine at a concentration of 0.46 µM was administered to rats as described in Example 1. The perfusate was analyzed by HPLC as described in Example 1 with the exception of the mobile phase used. The mobile phase was comprised of 0.1 M NaH₂PO₄:H₃PO₄:CH₃CN(916:5:240) delivered at 1.7 ml/min and analyzed by UV at 210 nm.

Experiment [2] relates to aminopeptidases. Nature of the experiment: In situ nasal perfusion: disappearance of 100 µM Tyr-Phe-Met-Arg-Phe-NH₂ in the nasal perfusate. The following applies: 100 µM peptide, 2 µM Boroleucine. The method, then: as §1, §2, §3
In this example, a 0.1 M phosphate buffer solution (pH 7.4) containing 100 µM Tyr-Phe-Met-Arg-Phe-NH₂ was administered nasally to rats as described in Example 1. The peptide was administered in the absence of inhibitor and in the presence of 2 µM boroleucine. The perfusate was analyzed by HPLC using the procedure described in Example 1 with the exception that the mobile phase was comprised of 0.1 M NaH₂PO₄:H₃PO₄:CH₃CN (200:1:60) delivered at 1.4 ml/min. Detection was by UV at 210 nm.

Experiment [3] deals with aminopeptidases. The experiment can be described thus: In situ nasal perfusion: degradation of 100 µM leucine enkephalin in the nasal perfusate. The note with it: 0.01 µM Boroleucine (title: 0.1 µM), 60 min.
The mark [4] stands for this setting: 120 min, listed as Boroleucine, trifluoroacetic acid salt.
[5] abbreviates: 120 min, trifluoroacetic acid salt.

Structures can show the parent of a compound that is named as a salt.

Take `CC(C)CC(N)B1OC(C)(C)C(C)(C)O1` (centres unmarked) [boroleucine, 3-methyl-1(4,4,5,5-tetramethyl-1,3,2-dioxaborolane-2-yl)-1-butamine, trifluoroacetic acid salt]: the “LH-RH (fragment 3-10) remaining in the nasal perfusate” value with aminopeptidases [1] (0 min) is on record as 100.0%; in the experiment on aminopeptidases [1] (5 min) it was 96.7%; with aminopeptidases [1] (10 min), 97.5%; in the experiment on aminopeptidases [1] (20 min), 95.5%; in the experiment with aminopeptidases [1] (30 min), 96.5%; with aminopeptidases [1] (45 min) it was 95.8%. The “LH-RH (fragment 3-10) remaining in the nasal perfusate” value in the experiment on aminopeptidases [1] (60 min) was 91.9%; with aminopeptidases [1] (90 min), 92.9%; in the experiment with aminopeptidases [1] (setting [4]), 86.4%; in the experiment on aminopeptidases [1] (setting [5]) it was “about 86%”. For the same compound, the “Tyr-Phe-Met-Arg-Phe-NH₂ remaining intact in the nasal perfusate” value in the experiment with aminopeptidases [2] (0 min) is given as 100.0%; in the experiment on aminopeptidases [2] (5 min), 93.8%; in the experiment on aminopeptidases [2] (20 min), 84.3%; in the experiment on aminopeptidases [2] (30 min), 78.8%; in the experiment with aminopeptidases [2] (45 min), 70.5%; in the experiment on aminopeptidases [2] (60 min), 63.3%. Moreover, the “Tyr-Phe-Met-Arg-Phe-NH₂ remaining intact in the nasal perfusate” value with aminopeptidases [2] (90 min) was 49.5%; with aminopeptidases [2] (setting [4]), 32.9%; in the experiment on aminopeptidases [2] (setting [5]), 33%. Further, the “% of leucine enkephalin remaining in the nasal perfusate” value with aminopeptidases [3] came out at 88.8±2.6%.
